Values quoted from earlier work in patent US20250032516A1, “COMPOSITIONS AND METHODS FOR TREATING EPILEPSY” (POVIVA CORP, priority 2023, published 2025).
Where two headings read alike, the source gives them in different places.

Conditions: children with Dravet syndrome

C=C(C)[C@@H]1CCC(C)=C[C@H]1c1c(O)cc(CCCCC)cc1O [Cannabidiol, 2-[(1R,6R)-6-Isopropenyl-3-methylcyclohex-2-en-1-yl]-5-pentylbenzene-1,3-diol]
Plasma concentration on Day 1 at starting CBD dose, 5 hours, Mean (SD) (5 mg/kg/day group (N = 10)): 10.0 (5.74) ng/mL
Plasma concentration on Day 1 at starting CBD dose, […], Mean (SD) (5 mg/kg/day group (N = 10)): 37.6 (53.7) ng/mL
Plasma concentration on Day 1 at starting CBD dose, 5 hours, Mean (SD) (10 mg/kg/day group (N = 8)): 11.3 (11.7) ng/mL
Plasma concentration on Day 1 at starting CBD dose, […], Mean (SD) (10 mg/kg/day group (N = 8)): 34.4 (32.1) ng/mL
Plasma concentration on Day 1 at starting CBD dose, 5 hours, Mean (SD) (20 mg/kg/day group (N = 9)): 25.3 (42.4) ng/mL
Plasma concentration on Day 1 at starting CBD dose, […], Mean (SD) (20 mg/kg/day group (N = 9)): 29.3 (28.5) ng/mL
